Data taken from patent US20240158446A1, “CYCLIC COMPOUND HAVING SELECTIVE INHIBITORY ACTION ON KRAS OVER HRAS AND NRAS” (CHUGAI SEIYAKU KABUSHIKI KAISHA, priority 2021, published 2024).

How the values were obtained:
[1] = target: GDP-bound KRAS wild-type protein (Homo sapiens, UniProt P01116); assay: Binding to KRAS by surface plasmon resonance (SPR), Single Cycle Kinetics; settings: SPR, Single Cycle Kinetics, GDP-bound KRAS wild-type protein; read-out: KRAS KD
[2] = target: GDP-bound NRAS wild-type protein (Homo sapiens, UniProt P01111); assay: Binding to NRAS by surface plasmon resonance (SPR), Single Cycle Kinetics; settings: SPR, GDP-bound NRAS wild-type protein vs GDP-bound KRAS wild-type protein
[3] = target: GDP-bound HRAS wild-type protein (Homo sapiens, UniProt P01112); assay: Binding to HRAS by surface plasmon resonance (SPR), Single Cycle Kinetics; settings: SPR, GDP-bound HRAS wild-type protein vs GDP-bound KRAS wild-type protein
[4] = tested on: human lung cancer strain NCI-H441;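 also: cell proliferation inhibition after four days measured by CellTiter-Glo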

GDP-bound NRAS wild-type protein, sequence (P01111 whole entry): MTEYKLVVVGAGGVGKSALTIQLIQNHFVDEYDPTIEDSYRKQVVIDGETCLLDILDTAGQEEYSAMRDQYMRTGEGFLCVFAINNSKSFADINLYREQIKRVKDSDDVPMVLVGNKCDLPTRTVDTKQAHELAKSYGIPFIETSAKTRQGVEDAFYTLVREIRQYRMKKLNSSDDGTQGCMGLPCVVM
GDP-bound HRAS wild-type protein, sequence (P01112 whole entry): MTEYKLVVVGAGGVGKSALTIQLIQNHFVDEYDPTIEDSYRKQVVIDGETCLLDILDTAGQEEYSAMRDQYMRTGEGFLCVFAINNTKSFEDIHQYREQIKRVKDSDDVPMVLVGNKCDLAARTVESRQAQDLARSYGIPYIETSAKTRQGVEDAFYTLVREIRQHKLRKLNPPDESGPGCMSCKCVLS
GDP-bound KRAS wild-type protein, sequence (P01116 whole entry): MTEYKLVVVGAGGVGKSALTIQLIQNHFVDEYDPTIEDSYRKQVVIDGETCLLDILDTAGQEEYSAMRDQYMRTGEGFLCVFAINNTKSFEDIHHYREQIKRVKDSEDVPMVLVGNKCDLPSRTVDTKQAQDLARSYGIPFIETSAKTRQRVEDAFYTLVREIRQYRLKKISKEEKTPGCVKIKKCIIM

Row | SMILES | Kd [1] | NRAS/KRAS (ratio of KD value for NRAS to KD value for KRAS) [2] | HRAS/KRAS (ratio of KD value for HRAS to KD value for KRAS) [3] | IC50 [4]
1 | CCO[C@@H]1C[C@H]2C(=O)NC3(CCC3)C(=O)N(C)[C@@H](C3CCCC3)C(=O)N(C)[C@H](C(=O)N3CCOCC3)CC(=O)N(C)[C@@H](CCOC)C(=O)N[C@@H]([C@@H](C)CC)C(=O)N(C)CC(=O)N(C)[C@H]3CCCCCN(C3=O)[C@@H](Cc3ccc(F)cc3)C(=O)N(C)CC(=O)N[C@@H](CCc3cc(F)c(C(F)(F)F)c(F)c3)C(=O)N2C1 [PP1180] | 0.17 nM | B (a compound having 3 or more and less than 10 is denoted as B) | B (a compound having 3 or more and less than 10 is denoted as B) | 46.9 nM
2 | CCO[C@@H]1C[C@H]2C(=O)NC3(CCC3)C(=O)N(C)[C@@H](C3CCCC3)C(=O)N(C)[C@H](C(=O)N3CCOCC3)CC(=O)N(C)[C@@H](Cc3cccs3)C(=O)N[C@@H]([C@@H](C)CC)C(=O)N(C)CC(=O)N(C)[C@H]3CCCCCN(C3=O)[C@@H](Cc3ccc(F)cc3)C(=O)N(C)CC(=O)N[C@@H](CCc3cc(F)c(C(F)(F)F)c(F)c3)C(=O)N2C1 [PP1183] | 0.26 nM | B (a compound having 3 or more and less than 10 is denoted as B) | B (a compound having 3 or more and less than 10 is denoted as B) | 27.8 nM
3 | CCO[C@@H]1C[C@H]2C(=O)NC3(CCC3)C(=O)N(C)[C@@H](C3CCCC3)C(=O)N(C)[C@H](C(=O)N3CCOCC3)CC(=O)N(C)[C@@H](Cc3ccsc3)C(=O)N[C@@H]([C@@H](C)CC)C(=O)N(C)CC(=O)N(C)[C@H]3CCCCCN(C3=O)[C@@H](Cc3ccc(F)cc3)C(=O)N(C)CC(=O)N[C@@H](CCc3cc(F)c(C(F)(F)F)c(F)c3)C(=O)N2C1 [PP1184] | 0.16 nM | B (a compound having 3 or more and less than 10 is denoted as B) | B (a compound having 3 or more and less than 10 is denoted as B) | 91.9 nM
4 | CCO[C@@H]1C[C@H]2C(=O)NC3(CCC3)C(=O)N(C)[C@@H](C3CCCC3)C(=O)N(C)[C@H](C(=O)N3CCOCC3)CC(=O)N(C)[C@@H](Cc3ccccc3C#N)C(=O)N[C@@H]([C@@H](C)CC)C(=O)N(C)CC(=O)N(C)[C@H]3CCCCCN(C3=O)[C@@H](Cc3ccc(F)cc3)C(=O)N(C)CC(=O)N[C@@H](CCc3cc(F)c(C(F)(F)F)c(F)c3)C(=O)N2C1 [PP1185] | 0.5 nM | B (a compound having 3 or more and less than 10 is denoted as B) | B (a compound having 3 or more and less than 10 is denoted as B) | 175 nM
5 | CCO[C@@H]1C[C@H]2C(=O)NC3(CCC3)C(=O)N(C)[C@@H](C3CCCC3)C(=O)N(C)[C@H](C(=O)N3CCOCC3)CC(=O)N(C)[C@@H](Cc3cccc(C#N)c3)C(=O)N[C@@H]([C@@H](C)CC)C(=O)N(C)CC(=O)N(C)[C@H]3CCCCCN(C3=O)[C@@H](Cc3ccc(F)cc3)C(=O)N(C)CC(=O)N[C@@H](CCc3cc(F)c(C(F)(F)F)c(F)c3)C(=O)N2C1 [PP1186] | 0.094 nM | B (a compound having 3 or more and less than 10 is denoted as B) | B (a compound having 3 or more and less than 10 is denoted as B) | 54.4 nM
6 | CCO[C@@H]1C[C@H]2C(=O)NC3(CCC3)C(=O)N(C)[C@@H](C3CCCC3)C(=O)N(C)[C@H](C(=O)N3CCOCC3)CC(=O)N(C)[C@@H](Cc3ccc(C#N)cc3)C(=O)N[C@@H]([C@@H](C)CC)C(=O)N(C)CC(=O)N(C)[C@H]3CCCCCN(C3=O)[C@@H](Cc3ccc(F)cc3)C(=O)N(C)CC(=O)N[C@@H](CCc3cc(F)c(C(F)(F)F)c(F)c3)C(=O)N2C1 [PP1187] | 0.12 nM | B (a compound having 3 or more and less than 10 is denoted as B) | B (a compound having 3 or more and less than 10 is denoted as B) | 52.3 nM
7 | CCO[C@@H]1C[C@H]2C(=O)NC3(CCC3)C(=O)N(C)[C@@H](C3CCCC3)C(=O)N(C)[C@H](C(=O)N3CCOCC3)CC(=O)N(C)[C@@H](Cc3ccc(Cl)c(Cl)c3)C(=O)N[C@@H]([C@@H](C)CC)C(=O)N(C)CC(=O)N(C)[C@H]3CCCCCN(C3=O)[C@@H](Cc3ccc(F)cc3)C(=O)N(C)CC(=O)N[C@@H](CCc3cc(F)c(C(F)(F)F)c(F)c3)C(=O)N2C1 [PP1188] | 0.43 nM | B (a compound having 3 or more and less than 10 is denoted as B) | B (a compound having 3 or more and less than 10 is denoted as B) | 33.5 nM
8 | CCO[C@@H]1C[C@H]2C(=O)NC3(CCC3)C(=O)N(C)[C@@H](C3CCCC3)C(=O)N(C)[C@H](C(=O)N(C)C)CC(=O)N(C)[C@@H](C)C(=O)N[C@@H]([C@@H](C)CC)C(=O)N(C)CC(=O)N(C)[C@H]3CCCCCN(C3=O)[C@@H](Cc3ccc(F)cc3)C(=O)N(C)CC(=O)N[C@@H](CCc3cc(F)c(C(F)(F)F)c(F)c3)C(=O)N2C1 [PP1189] | 0.066 nM | B (a compound having 3 or more and less than 10 is denoted as B) | B (a compound having 3 or more and less than 10 is denoted as B) | 16.1 nM
9 | CCO[C@@H]1C[C@H]2C(=O)NC3(CCC3)C(=O)N(C)[C@@H](C3CCCC3)C(=O)N(C)[C@H](C(=O)N(C)C)CC(=O)N(C)[C@@H](CC)C(=O)N[C@@H]([C@@H](C)CC)C(=O)N(C)CC(=O)N(C)[C@H]3CCCCCN(C3=O)[C@@H](Cc3ccc(F)cc3)C(=O)N(C)CC(=O)N[C@@H](CCc3cc(F)c(C(F)(F)F)c(F)c3)C(=O)N2C1 [PP1190] | 0.092 nM | B (a compound having 3 or more and less than 10 is denoted as B) | B (a compound having 3 or more and less than 10 is denoted as B) | 15.5 nM
10 | CCO[C@@H]1C[C@H]2C(=O)NC3(CCC3)C(=O)N(C)[C@@H](C3CCCC3)C(=O)N(C)[C@H](C(=O)N(C)C)CC(=O)N(C)[C@@H](CC(F)F)C(=O)N[C@@H]([C@@H](C)CC)C(=O)N(C)CC(=O)N(C)[C@H]3CCCCCN(C3=O)[C@@H](Cc3ccc(F)cc3)C(=O)N(C)CC(=O)N[C@@H](CCc3cc(F)c(C(F)(F)F)c(F)c3)C(=O)N2C1 [PP1191] | 0.056 nM | A (a compound having 10 or more and less than 20 is denoted as A) | B (a compound having 3 or more and less than 10 is denoted as B) | 13 nM
11 | CCO[C@@H]1C[C@H]2C(=O)NC3(CCC3)C(=O)N(C)[C@@H](C3CCCC3)C(=O)N(C)[C@H](C(=O)N(C)C)CC(=O)N(C)[C@@H](CC3CC3)C(=O)N[C@@H]([C@@H](C)CC)C(=O)N(C)CC(=O)N(C)[C@H]3CCCCCN(C3=O)[C@@H](Cc3ccc(F)cc3)C(=O)N(C)CC(=O)N[C@@H](CCc3cc(F)c(C(F)(F)F)c(F)c3)C(=O)N2C1 [PP1192] | 0.04 nM | B (a compound having 3 or more and less than 10 is denoted as B) | A (a compound having 10 or more and less than 20 is denoted as A) | 10.5 nM
12 | CCO[C@@H]1C[C@H]2C(=O)NC3(CCC3)C(=O)N(C)[C@@H](C3CCCC3)C(=O)N(C)[C@H](C(=O)N(C)C)CC(=O)N(C)[C@@H](COC)C(=O)N[C@@H]([C@@H](C)CC)C(=O)N(C)CC(=O)N(C)[C@H]3CCCCCN(C3=O)[C@@H](Cc3ccc(F)cc3)C(=O)N(C)CC(=O)N[C@@H](CCc3cc(F)c(C(F)(F)F)c(F)c3)C(=O)N2C1 [PP1193] | 0.07 nM | B (a compound having 3 or more and less than 10 is denoted as B) | B (a compound having 3 or more and less than 10 is denoted as B) | 16.3 nM
13 | CCO[C@@H]1C[C@H]2C(=O)NC3(CCC3)C(=O)N(C)[C@@H](C3CCCC3)C(=O)N(C)[C@H](C(=O)N(C)C)CC(=O)N(C)[C@@H](CCOC)C(=O)N[C@@H]([C@@H](C)CC)C(=O)N(C)CC(=O)N(C)[C@H]3CCCCCN(C3=O)[C@@H](Cc3ccc(F)cc3)C(=O)N(C)CC(=O)N[C@@H](CCc3cc(F)c(C(F)(F)F)c(F)c3)C(=O)N2C1 [PP1194] | 0.068 nM | B (a compound having 3 or more and less than 10 is denoted as B) | B (a compound having 3 or more and less than 10 is denoted as B) | 25.3 nM
14 | CCO[C@@H]1C[C@H]2C(=O)NC3(CCC3)C(=O)N(C)[C@@H](C3CCCC3)C(=O)N(C)[C@H](C(=O)N(C)C)CC(=O)N(C)[C@@H](Cc3ccccc3)C(=O)N[C@@H]([C@@H](C)CC)C(=O)N(C)CC(=O)N(C)[C@H]3CCCCCN(C3=O)[C@@H](Cc3ccc(F)cc3)C(=O)N(C)CC(=O)N[C@@H](CCc3cc(F)c(C(F)(F)F)c(F)c3)C(=O)N2C1 [PP1195] | 0.074 nM | B (a compound having 3 or more and less than 10 is denoted as B) | B (a compound having 3 or more and less than 10 is denoted as B) | 18.3 nM
